{"source": "paper PMC12114840", "about": "“Exploring the Anticancer Properties of 1,2,3-Triazole-Substituted Andrographolide Derivatives” (Pharmaceuticals, 2025)", "system": "PANC-1 cells", "assay": "Scratch (wound healing) assay", "type": "cell-based, human", "conditions": "PANC-1, 1.35 µM, 6 h and 24 h", "description": "Metastasis remains the greatest challenge in the clinical management of cancer. Cell migration is a key process that, during the whole cascade of cancer development, contributes to tumor invasion and metastasis. The scratch assay is a common in vitro technique used to assess two-dimensional cell migration and motility. It involves creating an artificial scratch or “wound” in a confluent monolayer of cells and then monitoring the progression of the wound over time. Therefore, a wound healing assay was used to evaluate the effect of compound 12 on the cell migration ability of PANC-1 cells.\nTotals of 6 × 10^5 PANC-1 cells/well were grown to confluence in 6-well plates, and a fixed-width wound was created in the cell monolayer using a sterile 10 µL micropipette tip. Cells were treated with DMSO or 1.35 µM of compound 12 and images of the wound were captured at different time points (0, 6, and 24 h) using an inverted NIKON TE 2000-U microscope from Nikon Instruments Inc. (Izasa, Carnaxide, Portugal) at 100× magnification with a DXM1200F digital camera (Nikon Instruments Inc., Amstelveen, The Netherlands) and NIS-Elements microscope imaging software (version 4; Nikon Instruments Inc.). Wound closure was calculated by subtracting the wound area (measured using Fiji Software, version 1.54f) at the indicated time point of treatment from the wound area at the starting point (0 h)."}
{"smiles": "C=C1CC[C@@H]2[C@](C)(COC(C)=O)[C@H](OC(C)=O)CC[C@@]2(C)[C@@H]1C[C@H](C1=CCOC1=O)n1cc(-c2ccc(Br)cc2)nn1", "note": "[Compound 12, (12R)-4-bromophenyl-1,2,3-triazole-3,19-diacetoxy-14-deoxy-andrographolide]", "values": [{"measurement": "wound closure compared to control", "value": "significantly reduced the wound closure"}]}
